Experimental data from patent publication US11535597B2, “Photoreactive ligands and uses thereof” (The Scripps Research Institute, priority 2017, dated 2022).

System: proteins in HEK293T cells
Assay: MS-based mapping of FFF probe-modified peptides (isoTOP, sites of labeling)
Format: binding, human
Description: Preparation and analysis was adapted from methods previously reported. In brief, for global mapping of fragment probe-modified peptides, separate 10 cm dishes of cells were treated with probes (200-250 μM) in 3.0 mL of DMEM (serum-free) and (if applicable) competitor ligands, proteomes harvested and subjected to click chemistry conditions with either light or heavy isotopically labeled biotin-TEV-azide (10 μL of 5 mM stocks in DMSO, final concentration=100 μM), TCEP, ligand and CuSO4 as detailed above. The samples were allowed to react for 1 h at which point the samples were centrifuged (16,000 g, 5 min, 4° C.). The resulting pellets were sonicated in ice-cold methanol (500 μL) and the resuspended light- and heavy-labeled samples were then combined and centrifuged (16,000 g, 5 min, 4° C.). The pellets were then solubilized in PBS containing 1.2% SDS (1 mL) with sonication and heating (5 min, 95° C.). Samples were transferred to falcon tubes containing DPBS (5 mL), to which a 100 μL of streptavidin-agarose beads slurry was added. After incubation, the beads (3 hr) were pelleted by centrifugation (1,400 g, 3 min) and were washed (2×10 mL PBS and 2×10 mL water). The beads were transferred to eppendorf tubes with 1 mL DPBS, centrifuged (1,400 g, 3 min), and resuspended in PBS containing 6 M urea. To this was added 10 mM DTT (25 μL of a 200 mM stock in water) and the beads were incubated at 65° C. for 15 mins. 20 mM iodoacetamide (25 μL of a 400 mM stock in water) was then added and allowed to react at 37° C. for 30 mins with shaking. The bead mixture was diluted with 900 μL PBS, pelleted by centrifugation (1,400 g, 3 min), and resuspended in 200 μL 2M urea (DPBS) containing trypsin and CaCl2 as described above. The beads were separated from the digest by centrifugation (1,000 g, 1 min), washed (2×1 mL PBS and 2×1 mL water) and then transferred to fresh eppendorfs with 1 mL water. The washed beads were washed once further in 150 μL TEV buffer (50 mM Tris, pH 8, 0.5 mM EDTA, 1 mM DTT) by centrifugation (1,400 g, 3 min) and the resuspended in 150 μL TEV buffer. 5 μL TEV protease (80 μM) was added and the reactions were rotated overnight at 29° C. The TEV digest was separated from the beads by centrifugation (1,400 g, 3 min) and the beads were washed once with water (100 μL). The samples were then acidified to a final concentration of 5% (v/v) formic acid and stored at −80° C. prior to analysis.
The resulting probe-modified peptides were collected for MS analysis, which was performed as described above with differences in the salt bumps applied in the chromatographic gradients which in this case were 0%, 30%, 60%, 90% and 100% NH4OAc (500 μM). The protein identification searches of the MS data were performed with the following changes applied to identify the peptides modified with the corresponding fragment probe and the cleaved TEV tag. All amino acids were considered as possible residues for modification. To facilitate the computational searches, sets of up to 3 amino acids were searched using ProLuCID and filtered with DTASelect as described above. […] The isoTOP ratios for probe labeled peptides were quantified using the in-house software CIMAGE.
For each protein in the site-of-labeling dataset, the UniProtKB accession number was used to map and collect relevant structures from the RCSB Protein Data Bank (PDB) fulfilling the following criteria: structures determined by X-ray crystallography, wild-type protein, Homo sapiens as the sole source organism. […] Fpocket 2.0 was used to detect potential binding pockets for the resultant structures with all parameters set at recommended default. Pockets with volume less than 500 Å^3 were removed from output prior to further analysis. Residues surrounding fpocket predicted binding pockets for each protein were collected to determine the number of residues overlapping with isoTOP peptides.

[1] = protein PSMA2 Proteasome subunit alpha type-2 (P25787)
[2] = protein PSMA2 Proteasome subunit alpha type-2, residues of the probe-labeled peptide

Structure (SMILES): C#CCCC1(CCC(=O)NCCc2ccc3c(c2)OCO3)N=N1 [probe 15, N-(2-(Benzo[d][1,3]dioxol-5-yl)ethyl)-3-(3-(but-3-yn-1-yl)-3H-diazirin-3-yl)propanamide]
- Labeled Peptide (MCM4 (P33991), residues of the probe-labeled peptide): 502-516
- Labeled Peptide (NUDT12 (Q9BQG2), residues of the probe-labeled peptide): 143-166
- Labeled Peptide (protein FDFT1 Squalene synthase (P37268), residues of probe-labeled peptide): 78-92
- Labeled Peptide (protein FDFT1 Squalene synthase, residues of probe-labeled peptide): 78-92

Structure (SMILES): C#CCCC1(CCC(=O)NC2N=C(c3ccccc3)c3ccccc3NC2=O)N=N1 (centres unmarked) [probe 2, 3-(3-(But-3-yn-1-yl)-3H-diazirin-3-yl)-N-(2-oxo-5-phenyl-2,3-dihydro-1H-benzo[e][1,4]diazepin-3-yl)propanamide]
- Labeled Peptide of GSTP1 Glutathione S-transferase P (Accession P09211, residues of probe-labeled peptide, family Enzymes): 56-71
- Labeled Peptide of HNRNPH3 Heterogeneous nuclear ribonucleoprotein H3 (Accession P31942, residues of probe-labeled peptide, family Transcription factors, Regulators): 324-343
- Labeled Peptide of FUS RNA-binding protein FUS (Accession P35637, residues of probe-labeled peptide, family Transcription factors, Regulators): 335-348
- Labeled Peptide (GSTP1 Glutathione S-transferase P, residues of probe-modified peptide): 56-71
- Labeled Peptide (HNRNPL Heterogeneous nuclear ribonucleoprotein L, residues of probe-modified peptide): 399-411
- Labeled Peptide (MESDC2 LDLR chaperone MESD (Q14696), residues of the probe-labeled peptide): 113-127
- Labeled Peptide (NOC2L (Q9Y3T9), residues of the probe-labeled peptide): 591-606
- Labeled Peptide (P09211 GSTP1 Glutathione S-transferase P): 56-71
- Labeled Peptide (residues) of PPP1CC Serine/threonine-protein phosphatase PP1-gamma cat (P36873, peptide IYGFYDECK, PDB 4UT2): 133-141
- Labeled Peptide (P55263 ADK Adenosine kinase): 209-224
- Labeled Peptide (residues) of PPP1CA Serine/threonine-protein phosphatase PP1-alpha cat (P62136, peptide IYGFYDECK, PDB 4XPN): 133-141
- Labeled Peptide (protein ADK (P55263), residues of probe-labeled peptide): 209-224
- Labeled Peptide (protein ADK Adenosine kinase, residues of probe-labeled peptide): 209-224
- Labeled Peptide (protein BSG Basigin (P35613), residues of probe-labeled peptide): 228-243
- Labeled Peptide (protein CLPTM1 Cleft lip and palate transmembrane protein 1 (O96005), residues of probe-labeled peptide): 548-562
- Labeled Peptide (protein EIF3E Eukaryotic translation initiation factor 3 submit (P60228), residues of probe-labeled peptide): 173-191
- Labeled Peptide (protein EIF3H Eukaryotic translation initiation factor 3 submit (O15372), residues of probe-labeled peptide): 207-220
- Labeled Peptide (protein EQSR1 RNA-binding protein EWS (Q01844), residues of probe-labeled peptide): 269-292
- Labeled Peptide (protein FARSB Phenylalanine--tRNA ligase beta subunit, residues of probe-labeled peptide): 518-530
- Labeled Peptide (protein FARSB Phenylalanini--tRNA ligase beta subunit (Q9NSD9), residues of probe-labeled peptide): 518-530
- Labeled Peptide (protein P62917 RPL8 60S ribosomal protein L8): 129-144
- Labeled Peptide (protein PFDN5 Prefoldin subunit 5 (Q99471)): 20-37
- Labeled Peptide (protein PPP1CA Serine/threonine-protein phosphatase PP1-alpha cat, residues of the probe-labeled peptide): 133-141
- Labeled Peptide (protein PPP1CA Serine/threonine-protein phosphate PP1-alpha cat (P62136)): 133-141
- Labeled Peptide (protein PPP1CB Serine/threonine-protein phosphate PP1-alpha cat (P62140)): 132-140
- Labeled Peptide (protein PPP1CC Serine/threonine-protein phosphatase PP1-gamma cat, residues of the probe-labeled peptide): 133-141
- Labeled Peptide (protein PPP1CC Serine/threonine-protein phosphate PP1-gamma cat (P36873)): 133-141
- Labeled Peptide [1]: 144-159
- Labeled Peptide [2]: 144-159
- Labeled Peptide (protein PSMD11 26S proteasome non-ATPase regulatory subunit 11 (O00231)): 164-175
- Labeled Peptide (protein PTCD3 Pentatricopeptide repeat-containing protein 3, mit (Q96EY7)): 119-126
- Labeled Peptide (protein Q6NUK1 SCLC25A24 Calcium-binding mitochondrial carrier protein SCaM): 454-469
- Labeled Peptide (protein Q15631 TSN Translin): 205-215
- Labeled Peptide (protein Q92804 TAF15 TATA-binding protein-associated factor 2N): 284-297
- Labeled Peptide (protein QKI Protein quaking (Q96PU8)): 192-205
- Labeled Peptide (protein RUVBL1 RuvB-like 1, residues of the probe-labeled peptide): 318-333
- Labeled Peptide (protein RUVBL1 RuvB-like 1, residues of the probe-modified peptide): 91-107
- Labeled Peptide (protein TSN Translin, residues of the probe-modified peptide): 205-215

Structure (SMILES): C#CCCC1(CCC(=O)Nc2ccc3oc(=O)ccc3c2)N=N1 [probe 3, 3-(3-(But-3-yn-1-yl)-3H-diazirin-3-yl)-N-(2-oxo-2H-chromen-6-yl)propanamide]
- Labeled Peptide of H2AFZ Histone H2A.Z (Accession P0C0S5, residues of probe-labeled peptide, family Transcription factors, Regulators): 47-75
- Labeled Peptide of GRWD1 Glutamate-rich WD repeat-containing protein 1 (Accession Q9BQ67, residues of probe-labeled peptide, family Uncategorized): 183-198
- Labeled Peptide (H2AFZ Histone H2A.Z, residues of probe-modified peptide): 47-75
- Labeled Peptide (HSD17B4 Peroxisomal multifunctional enzyme type 2, residues of probe-modified peptide): 169-183
- Labeled Peptide (LMNA Prelamin-A/C (P02545), residues of the probe-labeled peptide): 172-180
- Labeled Peptide (NONO (Q15233), residues of the probe-labeled peptide): 127-135
- Labeled Peptide (P00387 CYB5R3 NADH-cytochrome b5 reductase 3): 235-241
- Labeled Peptide (residues) of PGK1 Phosphoglycerate kinase 1 (P00558, peptide QIVWNGPVGVFEWEAFAR, PDB 2WZB): 333-350
- Labeled Peptide (P12532 CKMT1B Creatine kinase U-type, mitochondrial): 257-269
- Labeled Peptide (P38117 ETFB Electron transfer flavoprotein subunit beta): 36-51
- Labeled Peptide (P51659 HSD17B4 multifunctional enzyme type 2): 169-183
- Labeled Peptide (PARP1 (P09874), residues of the probe-labeled peptide): 954-1000
- Labeled Peptide (Q08211 DHX9 ATP-dependent RNA helicase A): 448-456
- Labeled Peptide (protein ABHD10 (Q9NUJ1), residues of probe-labeled peptide): 285-300
- Labeled Peptide (protein ACTL6A (O96019), residues of probe-labeled peptide): 25-34
- Labeled Peptide (protein ANAPC7 (Q9UJX3), residues of probe-labeled peptide): 407-424
- Labeled Peptide (protein CDK5RAP3 CDK5 regulatory subuni-associated protein 3 (Q96JB5), residues of probe-labeled peptide): 351-367
- Labeled Peptide (protein CKMT1B Creatine kinase U-type, mitochondria, residues of probe-labeled peptide): 257-269
- Labeled Peptide (protein CKMT1B Creatine kinase U-type, motochondrial (P12532), residues of probe-labeled peptide): 257-269
- Labeled Peptide (protein CYB5R3 NADH-cytochrome b5 reductase 3 (P00387), residues of probe-labeled peptide): 235-241
- Labeled Peptide (protein CYB5R3 NADH-cytochrome b5 reductase 3, residues of probe-labeled peptide): 235-241
- Labeled Peptide (protein DDX17 Propable ATP-dependent RNA helicase DDX17 (Q92841), residues of probe-labeled peptide): 536-547
- Labeled Peptide (protein DHX9 ATP-dependent RNA helicase A (Q08211), residues of probe-labeled peptide): 448-456
- Labeled Peptide (protein DHX9 ATP-dependent RNA helicase A, residues of probe-labeled peptide): 448-456
- Labeled Peptide (protein EEF1G Elongation factor 1-gamma (P26641), residues of probe-labeled peptide): 58-85
- Labeled Peptide (protein ETFB Electron transfer flavoprotein subunit beta (P38117), residues of probe-labeled peptide): 36-51
- Labeled Peptide (protein ETFB Electron transfer flavoprotein subunit beta, residues of probe-labeled peptide): 36-51
- Labeled Peptide (protein NONO Non-POU domain-containing octamer-binding protein, residues of the probe-labeled peptide): 127-135
- Labeled Peptide (protein PGK1 Phosphoglycerate kinase 1 (P00558)): 333-350
- Labeled Peptide (protein PGK1 Phosphoglycerate kinase 1, residues of the probe-labeled peptide): 333-350
- Labeled Peptide [1]: 19-39
- Labeled Peptide [2]: 19-39
- Labeled Peptide (protein Q96I99 SUCLG2 Succinyl-CoA ligase): 151-160
- Labeled Peptide (protein Q01105 SET Protein SET): 91-122
- Labeled Peptide (protein RBMXL1 RNA binding motif protein, X-linked-like-1 (Q96E39)): 245-252
